Assay results reported in ChEMBL document CHEMBL3779797, “Isoindole-1,3-dione derivatives as RSK2 inhibitors: synthesis, molecular docking simulation and SAR analysis” (Medchemcomm, 2016).

Key:
[1] = molecular target: Ribosomal protein S6 kinase alpha-2 (Homo sapiens) (UniProt Q15349); test: Inhibition of N-terminal His6 tagged full-length human recombinant active RSK2 at 10 uM using S6 peptide after 20 mins by fluorescence assay
[2] = Inhibition of RSK2 in rabbit skeletal muscle using KKRNRTLSVA as substrate after 10 mins in presence of [gamma32P]ATP; set-up: species or system Oryctolagus cuniculus

Sequence of Ribosomal protein S6 kinase alpha-2 (Homo sapiens) (Q15349 whole entry): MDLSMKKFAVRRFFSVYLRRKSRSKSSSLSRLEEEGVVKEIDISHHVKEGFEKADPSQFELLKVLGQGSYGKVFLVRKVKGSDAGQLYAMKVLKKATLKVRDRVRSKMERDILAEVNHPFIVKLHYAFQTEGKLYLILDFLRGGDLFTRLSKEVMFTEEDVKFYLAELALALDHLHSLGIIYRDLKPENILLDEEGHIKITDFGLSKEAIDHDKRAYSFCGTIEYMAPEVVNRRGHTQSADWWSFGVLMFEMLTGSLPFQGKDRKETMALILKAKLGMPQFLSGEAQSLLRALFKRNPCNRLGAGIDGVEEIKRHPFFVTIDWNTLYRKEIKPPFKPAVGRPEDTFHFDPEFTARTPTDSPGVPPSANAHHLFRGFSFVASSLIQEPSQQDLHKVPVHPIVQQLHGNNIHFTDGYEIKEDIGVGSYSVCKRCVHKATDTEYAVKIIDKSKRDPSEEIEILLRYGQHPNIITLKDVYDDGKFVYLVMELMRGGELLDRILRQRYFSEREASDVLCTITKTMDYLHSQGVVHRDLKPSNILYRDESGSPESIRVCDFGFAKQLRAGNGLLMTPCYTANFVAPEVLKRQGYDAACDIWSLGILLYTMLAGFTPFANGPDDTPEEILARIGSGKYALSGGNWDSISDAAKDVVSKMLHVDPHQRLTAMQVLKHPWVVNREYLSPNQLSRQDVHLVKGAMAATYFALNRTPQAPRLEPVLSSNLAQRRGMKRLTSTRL

inhibition [1] [%]	IC50 [2] [nM]	SMILES
35.7	–	Cc1ccc(NCN2C(=O)c3ccc([N+](=O)[O-])cc3C2=O)cc1
105	–	CCOc1ccc(NCN2C(=O)c3cccc(NC(=O)c4ccccc4)c3C2=O)cc1
99.5	–	COc1ccc(NCN2C(=O)c3cccc(NC(=O)c4ccccc4)c3C2=O)cc1
8.52	–	O=C1c2ccccc2C(=O)N1CNc1ccc(Cl)cc1
54	–	Cc1ccc(NCN2C(=O)c3ccccc3C2=O)cc1
87	–	CCOc1ccc(NCN2C(=O)c3ccc([N+](=O)[O-])cc3C2=O)cc1
101	–	O=C1c2ccccc2C(=O)N1CNc1ccc(N2CCOCC2)cc1
87	–	COc1ccc(N(C)CN2C(=O)c3ccccc3C2=O)cc1
101	–	O=C1c2ccccc2C(=O)N1CNc1ccc(O)cc1
103	–	O=C(Nc1ccc2c(c1)C(=O)N(CNc1ccc(N3CCOCC3)cc1)C2=O)c1ccccc1
95.6	–	COc1ccc(NCN2C(=O)c3cccc(N)c3C2=O)cc1
63	–	CCc1ccc(NCN2C(=O)c3ccccc3C2=O)cc1
100	–	CCOc1ccc(NCN2C(=O)c3ccccc3C2=O)cc1
69.5	–	CCOc1ccc(NCN2C(=O)c3ccc(NC(=O)c4ccccc4)cc3C2=O)cc1
17.2	–	COc1ccc(N(CN2C(=O)c3ccccc3C2=O)C(C)=O)cc1
–	50	CN(C)CCCn1cc(C2=C(c3c[nH]c4ccccc34)C(=O)NC2=O)c2ccccc21 [GF-109203]
46.5	–	CC(C)c1ccc(NCN2C(=O)c3ccccc3C2=O)cc1
56.7	–	O=C1c2ccccc2C(=O)N1CNc1ccc(F)cc1
82	–	COc1ccc(NCN2C(=O)c3ccc(NC(=O)c4ccccc4)cc3C2=O)cc1
97.2	–	COc1ccc(NCN2C(=O)c3ccccc3C2=O)cc1
34.8	–	COc1ccc(NCN2C(=O)c3ccc(NC(=O)Nc4ccccc4)cc3C2=O)cc1
28.1	–	O=C1c2ccccc2C(=O)N1CNc1ccc(OC(F)(F)F)cc1
109	–	COc1ccc(NCN2C(=O)c3ccc(N)cc3C2=O)cc1
43.6	–	O=C1c2ccccc2C(=O)N1CNc1ccccc1
81	–	CCN(CC)c1ccc(NCN2C(=O)c3ccccc3C2=O)c(C)c1
98.2	3	Cn1cc(C2=C(c3cn(CCCSC(=N)N)c4ccccc34)C(=O)NC2=O)c2ccccc21 [BISINDOLYLMALEIMIDE IX]
